≈ marks a conversion by molar mass, not a printed value.
How the values were obtained:
Format in all cases: cell-based
[1] = test system: Bacillus subtilis; assay: antimicrobial activity (MIC) against Bacillus subtilis
[2] = test system: Pseudomonas aeruginosa; assay: antimicrobial activity (MIC) against Pseudomonas aeruginosa
[3] = test system: Staphylococcus aureus; assay: antimicrobial activity (MIC) against Staphylococcus aureus

| Structure (SMILES) | MIC [2] | MIC [3] | other results |
| --- | --- | --- | --- |
| O=C(O)CN1CC(NC(=O)Cc2ccccc2)C1=O (centres unmarked) [Compound A, 2-(3-phenylacetamido-2-oxo-1-azetidinyl)acetic acid] |  |  | MIC [1]: 250 µg/mL (≈ 953 µM) |
| O=C(NC1CN(C(CSc2ccccc2)C(=O)O)C1=O)C(=NO)c1ccccc1 (centres unmarked) [Compound D, 2-[3-(2-phenyl-2-hydroxyiminoacetamido)-2-oxo-1-azetidinyl]-3-phenylthiopropionic acid] |  | 250 µg/mL (≈ 605 µM) |  |
| O=C(NC1CN(C(C(=O)O)c2cccc3ccccc23)C1=O)C(=NO)c1ccccc1 (centres unmarked) [Compound E, 2-[3-(2-phenyl-2-hydroxyiminoacetamido)-2-oxo-1-azetidinyl]-2-(1-naphthyl)acetic acid] |  | 60 µg/mL (≈ 144 µM) |  |
| O=C(NC1CN(C(Cc2ccc(O)cc2)C(=O)O)C1=O)C(=NO)c1ccccc1 (centres unmarked) [Compound F, 2-[3-(2-phenyl-2-hydroxyiminoacetamido)-2-oxo-1-azetidinyl]-3-(4-hydroxyphenyl)propionic acid] |  | 250 µg/mL (≈ 629 µM) |  |
| NC(CCOc1ccc(C(=NO)C(=O)NC2CN(C(C(=O)O)c3cccs3)C2=O)cc1)C(=O)O (centres unmarked) [Compound G] | 4 µg/mL (≈ 8.16 µM) |  |  |
| O=C(NC1CN(C(C(=O)O)c2ccco2)C1=O)C(=NO)c1ccccc1 (centres unmarked) [Compound H, 2-[3-(2-phenyl-2-hydroxyiminoacetamido)-2-oxo-1-azetidinyl]-2-(2-furyl)acetic acid] | 60 µg/mL (≈ 168 µM) |  |  |

Continued, in another order:

| MIC [2] | MIC [3] | Structure (SMILES) | other results |
| --- | --- | --- | --- |
| 4 µg/mL (≈ 8.26 µM) |  | NC(CCOc1ccc(C(=NO)C(=O)NC2CN(C(C(=O)O)c3ccccc3)C2=O)cc1)C(=O)O (centres unmarked) [Compound B, 2-[3-[2-{4-(3-amino-3-carboxypropoxy)phenyl}-2-hydroxyiminoacetamido]-2-oxo-1-azetidinyl]-2-phenylacetic acid] |  |
| 2.5 µg/mL (≈ 5 µM) |  | NC(CCOc1ccc(C(=NO)C(=O)NC2CN(C(C(=O)O)c3ccc(O)cc3)C2=O)cc1)C(=O)O (centres unmarked) [Compound C, 2-[3-[2-{4-(3-amino-3-carboxypropoxy)phenyl}-2-hydroxyiminoacetamido]-2-oxo-1-azetidinyl]-2-(4-hydroxyphenyl)acetic acid] |  |
